In PubChem BioAssay AID2060892 (Molecular Pharmacology Branch, DTP, NCI, 2025):
pIC50: −log10 of the molar value.

System: HOP-62 complex spheroids with HUVEC/MSC, viability
Assay: Anticancer human tumor HOP-62 cell line growth inhibition [RAS];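 note: spheroids exposed to agents for seven days before readout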
Details: for pIC50: curve of first compound; for viability, T/C: stronger effect = lower value; active = viability on the fitted dose curve at most 10% of control; inactive = the rest
Source text: RAS pathway inhibitors in Combinations in Complex Spheroids
A high-throughput screen of multi-cell type tumor spheroids was designed to identify active combinations of RAS pathway inhibitors and targeted small molecules. Complex spheroids include a stromal component modeled by human endothelial cells (HUVEC) and fibroblasts modeled by human mesenchymal stem cells (MSCs). The concentration ranges selected for each drug and investigational agent were based upon clinically achievable concentrations if the clinical Cmax of the agent was known.
Compounds. The drugs and investigational agents: abemaciclib (NSC768073), cobimetinib (NSC768068), divarasib (GDC6063, NSC841802), docetaxel (NSC628503), GDC-1971 (RLY-1971, NSC841576), gemcitabine (NSC613327), inavolisib (NSC800729), ipatasertib (NSC767898), KB-0742 (NSC834161), MRTX-1133 (NSC836407), osimertinib (NSC779217), RMC-4630 (NSC839698), RMC-6236 (NSC851965), RMC-6291 (NSC852671), Ro-3306 (NSC812927), sapanisertib (NSC764658), SN-38 (NSC673596), staurosporine (NSC755774), SY5609 (NSC837396), and tovorafenib (DAY101, NSC766906), were obtained from the National Cancer Institute (NCI) Developmental Therapeutics Program Chemical Repository. The FDA-approved anticancer drug set is available from the NCI Developmental Therapeutics Program. […] The stock solutions were prepared in dimethyl sulfoxide (DMSO, Sigma-Aldrich, St. Louis, MO, cat. D2650) at 800-fold the tested concentration and stored at -70 degrees C prior to their use. All drugs and investigational agents were tested over a range starting from a high concentration at or near the clinical Cmax and decreasing in half-log increments. If the clinical Cmax for an agent had not been determined, the highest concentration tested was 10 microM.
Cell Culture. All cells were maintained in an incubator at 37 degrees C and 5% CO2 with 95% humidity. The PDC lines were cultured according to standard operating procedures established by the NCI PDMR. All PDCs were thawed and cultured in Matrigel-coated flasks prepared with a working solution of 1X Ham's F-12 nutrient mix, without supplementation (Invitrogen, Waltham, MA, cat. 11765054), 100 U/mL penicillin-streptomycin (Invitrogen, cat. 15140122), and 2.5% Matrigel (Corning Inc., Corning, NY, cat. 354248) for the first three passages. The 362531-283-R-J2-PDC and 782815-120-R-J1-PDC lines were cultured in 6C/Colon 1B media, which includes advanced DMEM/F-12 (Thermo Fisher Scientific, cat. 12634028), 10 mM HEPES (Thermo Fisher Scientific, cat. 15630080), 1X GlutaMAX supplement (Thermo Fisher Scientific, cat. 35050061), 0.1 mg/mL primocin (InvivoGen, San Diego, CA, cat. ant-pm-2), 10% defined fetal bovine serum, heat inactivated (HyClone Laboratories Inc., Logan, UT, cat. SH30070.03HI), 50% L-WRN conditioned media (ATCC, cat. CRL-3276), 1.25 mM N-Acetyl-L-cysteine (Sigma-Aldrich, cat. A9165), 10 mM nicotinamide (Sigma-Aldrich, cat. N0636), 1X B-27 supplement (Thermo Fisher Scientific, cat. 17504044), 1X N-2 supplement (Thermo Fisher Scientific, cat. 17502048), 50 ng/mL human EGF (Thermo Fisher Scientific, cat. PHG0311), and 10 microM Y-27632 dihydrochloride (Tocris Bioscience, cat. 1254). The K12877-001-R-J1-PDC line was cultured in 6I media, which includes all 6C/Colon 1B media plus 10 ng/mL human FGF-10 (PeproTech, cat. 100-26), 1 ng/mL human FGF-2 (PeproTech, cat. 100-18B), 1 µM prostaglandin E2 (Tocris Bioscience, cat. 2296), […] hydrocortisone (Sigma-Aldrich, cat. H4001), and […] bovine insulin (Sigma-Aldrich, cat. I6634). The K86415-001-R-J1-PDC line was cultured in 6D media, which includes all 6C/Colon 1B media components minus the L-WRN conditioned media. The 485176-168-R4-J1-PDC was cultured in PANC media, which includes all 6C/Colon 1B media plus 100 ng/mL human FGF-10 (PeproTech, cat. 100-26), 500 nM SB-431542 (Selleckchem, cat. S1067), and 10 nM gastrin (Tocris Bioscience, cat. 3006). […]

[1] = second compound 0.0316 µM, first compound 0.00316 µM
[2] = second compound 0.0316 µM, first compound 0.01 µM
[3] = second compound 0.0316 µM, first compound 0.0316 µM
[4] = second compound 0.0316 µM, first compound 0.1 µM
[5] = second compound 0.0316 µM, first compound 0.316 µM
[6] = second compound 0.0316 µM, first compound 1 µM
[7] = second compound 0.1 µM, first compound 0.00316 µM
[8] = second compound 0.1 µM, first compound 0.01 µM
[9] = second compound 0.1 µM, first compound 0.0316 µM
[10] = second compound 0.1 µM, first compound 0.1 µM
[11] = second compound 0.1 µM, first compound 0.316 µM
[12] = second compound 0.1 µM, first compound 1 µM
[13] = second compound 0.316 µM, first compound 0.00316 µM
[14] = second compound 0.316 µM, first compound 0.01 µM
[15] = second compound 0.316 µM, first compound 0.0316 µM
[16] = second compound 0.316 µM, first compound 0.1 µM
[17] = second compound 0.316 µM, first compound 0.316 µM
[18] = second compound 0.316 µM, first compound 1 µM
[19] = second compound 1 µM, first compound 0.00316 µM
[20] = second compound 1 µM, first compound 0.01 µM
[21] = second compound 1 µM, first compound 0.0316 µM
[22] = second compound 1 µM, first compound 0.1 µM
[23] = second compound 1 µM, first compound 0.316 µM
[24] = second compound 1 µM, first compound 1 µM
[25] = second compound 3.16 µM, first compound 0.00316 µM
[26] = second compound 3.16 µM, first compound 0.01 µM
[27] = second compound 3.16 µM, first compound 0.0316 µM
[28] = second compound 3.16 µM, first compound 0.1 µM
[29] = second compound 3.16 µM, first compound 0.316 µM
[30] = second compound 3.16 µM, first compound 1 µM
[31] = second compound 10 µM, first compound 0.00316 µM
[32] = second compound 10 µM, first compound 0.01 µM
[33] = second compound 10 µM, first compound 0.0316 µM
[34] = second compound 10 µM, first compound 0.1 µM
[35] = second compound 10 µM, first compound 0.316 µM
[36] = second compound 10 µM, first compound 1 µM

C=CC(=O)Nc1cc(Nc2nccc(-c3cn(C)c4ccccc34)n2)c(OC)cc1N(C)CCN(C)C + C#Cc1c(F)ccc2cc(O)cc(-c3ncc4c(N5CC6CCC(C5)N6)nc(OCC56CCCN5CC(F)C6)nc4c3F)c12
inactive: viability, T/C [1] 109% | viability, T/C [2] 105% | viability, T/C [3] 106% | viability, T/C [4] 109% | viability, T/C [5] 108% | viability, T/C [6] 93% | viability, T/C [7] 108% | viability, T/C [8] 114% | viability, T/C [9] 106% | viability, T/C [10] 100% | viability, T/C [11] 101% | viability, T/C [12] 90.4% | viability, T/C [13] 109% | viability, T/C [14] 102% | viability, T/C [15] 100% | viability, T/C [16] 112% | viability, T/C [17] 98% | viability, T/C [18] 83.6% | viability, T/C [19] 104% | viability, T/C [20] 105% | viability, T/C [21] 98.5% | viability, T/C [22] 93.2% | viability, T/C [23] 86.9% | viability, T/C [24] 75.1% | viability, T/C [25] 74.8% | viability, T/C [26] 74.3% | viability, T/C [27] 81% | viability, T/C [28] 81.8% | viability, T/C [29] 59.2% | viability, T/C [30] 38.9% | viability, T/C [31] 47.2% | viability, T/C [32] 45.9% | viability, T/C [33] 53% | viability, T/C [34] 40.4% | viability, T/C [35] 35.4% | viability, T/C [36] 29.5%
6.27: pIC50 (second compound 3.16 µM)
< 6.00: pIC50 (second compound 0.0316 µM) | pIC50 (second compound 0.1 µM) | pIC50 (second compound 0.316 µM) | pIC50 (second compound 1 µM)
> 8.50: pIC50 (second compound 10 µM)

CC(Nc1ccc2c(c1)OCCn1cc(N3C(=O)OCC3C(F)F)nc1-2)C(N)=O (stereo unspecified) + C#Cc1c(F)ccc2cc(O)cc(-c3ncc4c(N5CC6CCC(C5)N6)nc(OCC56CCCN5CC(F)C6)nc4c3F)c12
7.02: pIC50 (second compound 3.16 µM)
5.79: pIC50 (second compound 0.1 µM)
6.12: pIC50 (second compound 1 µM)
> 7.50: pIC50 (second compound 10 µM)
inactive: viability, T/C [3] 80.5% | viability, T/C [4] 69.2% | viability, T/C [5] 54.6% | viability, T/C [6] 59.8% | viability, T/C (second compound 0.0316 µM, first compound 3.16 µM) 42.8% | viability, T/C (second compound 0.0316 µM, first compound 10 µM) 32.9% | viability, T/C [9] 85.6% | viability, T/C [10] 78.5% | viability, T/C [11] 57% | viability, T/C [12] 58.4% | viability, T/C (second compound 0.1 µM, first compound 3.16 µM) 45.9% | viability, T/C (second compound 0.1 µM, first compound 10 µM) 32.8% | viability, T/C [15] 86.9% | viability, T/C [16] 68.9% | viability, T/C [17] 59.6% | viability, T/C [18] 52.9% | viability, T/C (second compound 0.316 µM, first compound 3.16 µM) 41.3% | viability, T/C (second compound 0.316 µM, first compound 10 µM) 31.4% | viability, T/C [21] 78.5% | viability, T/C [22] 67.4% | viability, T/C [23] 53.5% | viability, T/C [24] 50.6% | viability, T/C (second compound 1 µM, first compound 3.16 µM) 39.2% | viability, T/C (second compound 1 µM, first compound 10 µM) 28.4% | viability, T/C [27] 67.8% | viability, T/C [28] 41.7% | viability, T/C [29] 40% | viability, T/C [30] 32.3% | viability, T/C (second compound 3.16 µM, first compound 3.16 µM) 22.3% | viability, T/C (second compound 3.16 µM, first compound 10 µM) 15.1% | viability, T/C [33] 31.3% | viability, T/C [34] 22.8% | viability, T/C [35] 19.2% | viability, T/C [36] 17.3% | viability, T/C (second compound 10 µM, first compound 3.16 µM) 12.6% | viability, T/C (second compound 10 µM, first compound 10 µM) 10.2%
5.99: pIC50 (second compound 0.316 µM)
5.88: pIC50 (second compound 0.0316 µM)

O=C(c1ccc(F)c(F)c1Nc1ccc(I)cc1F)N1CC(O)([C@@H]2CCCCN2)C1 + C#Cc1c(F)ccc2cc(O)cc(-c3ncc4c(N5CC6CCC(C5)N6)nc(OCC56CCCN5CC(F)C6)nc4c3F)c12
6.91: pIC50 (second compound 0.0316 µM)
> 8.50: pIC50 (second compound 10 µM)
inactive: viability, T/C [1] 107% | viability, T/C [2] 113% | viability, T/C [3] 97.3% | viability, T/C [4] 54.2% | viability, T/C [5] 30.8% | viability, T/C [6] 25.2% | viability, T/C [7] 112% | viability, T/C [8] 114% | viability, T/C [9] 90.2% | viability, T/C [10] 61% | viability, T/C [11] 31.3% | viability, T/C [12] 24% | viability, T/C [13] 113% | viability, T/C [14] 108% | viability, T/C [15] 88.3% | viability, T/C [16] 58.1% | viability, T/C [17] 32.2% | viability, T/C [18] 26.8% | viability, T/C [19] 96.7% | viability, T/C [20] 95.7% | viability, T/C [21] 82% | viability, T/C [22] 50.1% | viability, T/C [23] 33.2% | viability, T/C [24] 25.3% | viability, T/C [25] 73.6% | viability, T/C [26] 63.6% | viability, T/C [27] 56.3% | viability, T/C [28] 36.5% | viability, T/C [29] 22.3% | viability, T/C [30] 18.3% | viability, T/C [31] 46.4% | viability, T/C [32] 47.9% | viability, T/C [33] 32.2% | viability, T/C [34] 23.9% | viability, T/C [35] 12.5% | viability, T/C [36] 11.7%
6.85: pIC50 (second compound 0.316 µM)
6.97: pIC50 (second compound 1 µM)
6.83: pIC50 (second compound 0.1 µM)
7.38: pIC50 (second compound 3.16 µM)
